The assay deals with T1, PltA (Pseudomonas fluorescens, UniProt Q4KCZ0).
T1 construct: expressed in transfected cells; host or cells: E. coli BL21 (DE3)
The experiment in a line: Cell-based activity assay (Assay 3), PltA negative control. The note with it: cultures expressing PltA (negative control). Further details: species or system E. coli BL21 (DE3). As to the method: E. coli BL21 (DE3) cells were transformed with ppltM-pET28a, ppltMK87A-pET28a, ppltML111Y-pET28a, ppltMS404Y-pET28a, and ppltA-pET28a. The ppltA-pET28a plasmid overexpressing the halogenase PltA whose substrate is pyrrolyl-S-PltL (a peptidyl carrier protein-linked pyrrole) was used as a negative control. Five colonies from each transformant were cultured in 2×500 mL of LB medium (for ppltM-pET28a, ppltML111Y-pET28a, and ppltMS404Y-pET28a) and 1×500 mL of LB medium (for ppltMK87A-pET28a and ppltA-pET28a) with 50 μg/mL kanamycin at 37° C. and 200 rpm until attenuance of 0.2 at 600 nm. The cultures were then moved to 25° C. until attenuance of 0.5. Protein expression was induced by adding 0.2 mM IPTG to all […] flasks, and the cultures were incubated with shaking for 1 h. 12.5 μg/mL of compound 1 was added to 1×500 mL of LB medium containing ppltM-pET28a, ppltMK87A-pET28a, ppltML111Y-pET28a, ppltMS404Y-pET28a, and ppltA-pET28a. Compound 1 was not added to the three remaining flasks (negative controls). After additional incubation for 20 h, the cells were pelleted at 5,000 g for 10 min, and the supernatant was collected. The supernatant was extracted with EtOAc (3×330 mL), which was dried in vacuo. […]
The halogenation reaction products were analyzed by HPLC or LC-MS by injecting 10 μL of each sample. […]
For HPLC analysis, the molecules were observed by absorbance at λ=275 nm as described above. […]

T1 sequence (Q4KCZ0 whole entry): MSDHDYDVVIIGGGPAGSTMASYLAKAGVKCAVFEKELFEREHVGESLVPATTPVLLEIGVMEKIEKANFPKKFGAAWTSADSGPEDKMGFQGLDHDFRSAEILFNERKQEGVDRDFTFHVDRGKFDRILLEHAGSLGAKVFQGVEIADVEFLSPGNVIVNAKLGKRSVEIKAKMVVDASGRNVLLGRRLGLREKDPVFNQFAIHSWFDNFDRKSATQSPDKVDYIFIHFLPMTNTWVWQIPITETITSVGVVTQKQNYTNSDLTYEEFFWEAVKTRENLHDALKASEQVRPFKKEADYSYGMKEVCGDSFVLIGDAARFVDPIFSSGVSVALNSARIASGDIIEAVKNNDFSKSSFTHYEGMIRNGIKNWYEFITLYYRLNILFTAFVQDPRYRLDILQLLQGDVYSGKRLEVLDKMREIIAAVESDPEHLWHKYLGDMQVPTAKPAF

Consider `Oc1cc(O)cc(O)c1` [Compound 1, phloroglucinol], for which the “halogenation in fermentation culture” value was “No halogenated product was observed”.

Values taken from patent US20200299671A1, “IMMOBILIZED MULTI-ENZYMATIC HALOGENATION SYSTEM” (priority 2019, published 2020).
